≈ marks a conversion by molar mass, not a printed value.
Tests used:
A498 = experiment: Cytotoxicity against human A-498 cells; assay type: functional; settings: for EC50: Homo sapiens, A498, read-out: ED50 (the source's name)
A549 = experiment: Cytotoxicity against human A549 cells; assay type: functional; settings: for EC50: Homo sapiens, A549, read-out: ED50 (the source's name)
HT-29 = experiment: Cytotoxicity against human HT-29 cells; assay type: functional; settings: for EC50: Homo sapiens, HT-29, read-out: ED50 (the source's name)
MCF7 = experiment: Cytotoxicity against human MCF7 cells; assay type: functional; settings: for EC50: Homo sapiens, MCF7, read-out: ED50 (the source's name)
MIA PaCa-2 = experiment: Cytotoxicity against human MIA PaCa2 cells; assay type: functional; settings: for EC50: Homo sapiens, MIA PaCa-2, read-out: ED50 (the source's name)
PC-3 = experiment: Cytotoxicity against human PC-3 cells; assay type: functional; settings: for EC50: Homo sapiens, PC-3, read-out: ED50 (the source's name)
[1] = Toxicity in brine shrimp; assay type: organism-based; settings: artemia, in vivo

Compound	EC50 (A498)	EC50 (A549)	EC50 (HT-29)	EC50 (MCF7)	ED50 (MIA PaCa-2)	EC50 (PC-3)	ED50 (MCF7)	ED50 (PC-3)	LC50 [1]	EC50 (MIA PaCa-2)	ED50 (A498)	ED50 (A549)	ED50 (HT-29)
CCCCCCCCCCCC[C@H](O)[C@H]1CC[C@H]([C@H](O)CCCCCC(=O)CCCC[C@@H](O)CC2=C[C@H](C)OC2=O)O1 [MOSIN B]	> 1 µg/mL	0.94 µg/mL (≈ 1.58 µM)	> 1 µg/mL	> 1 µg/mL	1.2 ×10⁻⁴ ug/ml	> 1 µg/mL							
CCCCCCCCCCCC[C@@H](O)[C@H]1CC[C@H]([C@H](O)CCCC[C@H](O)CCCCCCC[C@@H](O)CC2=C[C@H](C)OC2=O)O1 [ANNOGLACIN B]	0.4 µg/mL (≈ 0.64 µM)	0.0028 µg/mL (≈ 0.00448 µM)	0.0053 µg/mL (≈ 0.00848 µM)		1.2 ×10⁻⁶ ug/ml		6.2 ×10⁻⁴ ug/ml	8.4 ×10⁻⁴ ug/ml	0.17 µg/mL (≈ 0.272 µM)				
CCCCCCCCCC/C=C\CC[C@@H](O)[C@H]1CC[C@H]([C@H](O)CCCCCC(=O)CCCC[C@@H]2CC(CC(C)=O)C(=O)O2)O1 (stereo partly drawn)	> 1 µg/mL	> 1 µg/mL	> 1 µg/mL	> 1 µg/mL		0.032 µg/mL (≈ 0.0515 µM)			0.44 µg/mL (≈ 0.709 µM)	0.22 µg/mL (≈ 0.354 µM)			
CCCCCCCCCCCC[C@H](O)[C@@H](O)CC[C@H](O)[C@@H]1CC[C@@H](C[C@H](O)CCCCC[C@@H](O)CC2=C[C@H](C)OC2=O)O1 [ANNOPENTOCIN B]	0.38 µg/mL (≈ 0.62 µM)	0.027 µg/mL (≈ 0.0441 µM)	1.6 µg/mL (≈ 2.61 µM)	3.6 µg/mL (≈ 5.87 µM)		0.21 µg/mL (≈ 0.343 µM)			0.11 µg/mL (≈ 0.179 µM)	0.16 µg/mL (≈ 0.261 µM)			
CCCCCCCCCCCC[C@@H](O)[C@H]1CC[C@H]([C@H](O)CCC(O)CCCC(O)CCC[C@@H](O)CC2=C[C@H](C)OC2=O)O1 (stereo partly drawn) [MURICAPENTOCIN]	1.7 µg/mL (≈ 2.77 µM)	0.19 µg/mL (≈ 0.31 µM)	0.071 µg/mL (≈ 0.116 µM)	1.9 µg/mL (≈ 3.1 µM)		0.45 µg/mL (≈ 0.734 µM)			1.8 µg/mL (≈ 2.94 µM)	0.05 µg/mL (≈ 0.0816 µM)			
CCCCC[C@H](O)[C@H](O)CCC[C@H](O)[C@H]1CC[C@H]([C@H]2CC[C@H]([C@H](O)CCCCCCCCCCCCC3=C[C@H](C)OC3=O)O2)O1 (stereo in doubt; 91) [PURPUREDIOLIN]			0.0046 µg/mL (≈ 0.0072 µM)		3 µg/mL (≈ 4.7 µM)		2.5 ×10⁻⁴ ug/ml	1.1 µg/mL (≈ 1.72 µM)	0.43 µg/mL (≈ 0.673 µM)		1.5 µg/mL (≈ 2.35 µM)	1.6 µg/mL (≈ 2.5 µM)	
CCCCCCCCCCCC[C@@H](O)[C@H]1CC[C@H]([C@H](O)CCCCCC[C@H](O)CCCCC[C@@H]2CC(CC(C)=O)C(=O)O2)O1 (mixture of isomers)	1.4 µg/mL	2.6 µg/mL	0.26 µg/mL	3.2 µg/mL		1 µg/mL			0.31 µg/mL	0.68 µg/mL			
CCCCCCCCCCCC[C@@H](O)[C@H](O)CC[C@H](O)[C@@H]1CC[C@@H](C[C@H](O)CCCCC[C@@H](O)CC2=C[C@H](C)OC2=O)O1 [ANNOPENTOCIN A]	0.61 µg/mL (≈ 0.995 µM)	0.17 µg/mL (≈ 0.277 µM)	1.6 µg/mL (≈ 2.61 µM)	18 µg/mL (≈ 29.4 µM)		1.1 µg/mL (≈ 1.79 µM)			8.9 µg/mL (≈ 14.5 µM)	0.036 µg/mL (≈ 0.0587 µM)			
CCCCCCCCCC[C@@H](O)[C@H]1CC[C@H]([C@H]2CC[C@H]([C@H](O)CCCCC[C@@H](O)CCCCC3CC(CC(C)=O)C(=O)O3)O2)O1 (stereo partly drawn)	0.036 µg/mL (≈ 0.0563 µM)	0.077 µg/mL (≈ 0.121 µM)	1.4 µg/mL (≈ 2.19 µM)	0.0012 µg/mL (≈ 0.00188 µM)	1.7 ×10⁻⁴ ug/ml	0.16 µg/mL (≈ 0.25 µM)			0.35 µg/mL (≈ 0.548 µM)				
CCCCCCCCCCCC[C@@H](O)[C@H]1CC[C@H]([C@H]2CCC[C@@H]([C@@H](O)CCCCCCC[C@@H](O)CC3=C[C@H](C)OC3=O)O2)O1 [MUCONIN]	0.18 µg/mL (≈ 0.289 µM)	0.0045 µg/mL (≈ 0.00722 µM)	0.39 µg/mL (≈ 0.626 µM)		5.4 ×10⁻⁴ ug/ml	0.58 µg/mL (≈ 0.931 µM)	2.4 ×10⁻⁴ ug/ml						
CCCCCCCCCCCC[C@H](O)[C@H](O)CC[C@H](O)[C@@H]1CC[C@@H](C[C@H](O)CCCCC[C@@H](O)CC2=C[C@H](C)OC2=O)O1 [ANNOPENTOCIN C]	0.26 µg/mL (≈ 0.424 µM)	0.021 µg/mL (≈ 0.0343 µM)	1.2 µg/mL (≈ 1.96 µM)	0.3 µg/mL (≈ 0.489 µM)		0.23 µg/mL (≈ 0.375 µM)			14 µg/mL (≈ 22.8 µM)	0.43 µg/mL (≈ 0.702 µM)			
CCCCCCCCCCCC[C@H](O)[C@H]1CC[C@H]([C@H]2CC[C@H]([C@H](O)CCCCCCCC[C@@H](O)CC3=C[C@H](C)OC3=O)O2)O1 [SQUAMOTACIN]								1 ×10⁻⁸ ug/ml					
CCCCCCCCCCCCCCCC[C@@H](O)[C@H]1CC[C@H]([C@H](O)CC[C@H](O)CCCCC[C@@H](O)CC2=C[C@H](C)OC2=O)O1 [GONIOTETRACIN]	1.5 µg/mL (≈ 2.4 µM)	0.39 µg/mL (≈ 0.624 µM)	1.5 µg/mL (≈ 2.4 µM)	1.7 µg/mL (≈ 2.72 µM)		0.021 µg/mL (≈ 0.0336 µM)			0.2 µg/mL (≈ 0.32 µM)	0.026 µg/mL (≈ 0.0416 µM)			
CCCCCCCCCCCC[C@H]1O[C@@H]([C@H](O)CCCC[C@H](O)CCCCC[C@@H](O)CC2=C[C@H](C)OC2=O)CC[C@H]1O [PYRANICIN]	0.18 µg/mL (≈ 0.302 µM)	0.28 µg/mL (≈ 0.469 µM)	1.2 µg/mL (≈ 2.01 µM)	0.39 µg/mL (≈ 0.653 µM)		0.41 µg/mL (≈ 0.687 µM)			0.3 µg/mL (≈ 0.503 µM)	0.0013 µg/mL (≈ 0.00218 µM)			
CCCCCCCCCC[C@H](O)[C@@H](O)CCCC[C@H]1CC[C@H]([C@H]2CC[C@H]([C@H](O)CCCCC[C@@H](O)CC3=C[C@H](C)OC3=O)O2)O1 (stereo in doubt; 21) [GLACIN B]	2.6 µg/mL (≈ 4.07 µM)				1.5 ×10⁻² ug/ml		5.2 ×10⁻² ug/ml	5.6 ×10⁻² ug/ml	0.27 µg/mL (≈ 0.423 µM)			1.3 µg/mL (≈ 2.03 µM)	8.7 ×10⁻² ug/ml
CCCCCCCCCCCC[C@@H](O)[C@H]1CC[C@@H]([C@@H]2CC[C@@H](CCCCCCC[C@@H](O)CC3=C[C@H](C)OC3=O)O2)O1 [ROLLIDECIN C]	1.4 µg/mL (≈ 2.42 µM)	1.3 µg/mL (≈ 2.25 µM)	0.063 µg/mL (≈ 0.109 µM)	1.1 µg/mL (≈ 1.9 µM)		0.29 µg/mL (≈ 0.501 µM)				0.11 µg/mL (≈ 0.19 µM)			
CCCCCCCCCCCC[C@H](O)[C@@H]1CC[C@H]([C@H](O)CCCCCC(=O)CCCC[C@@H](O)CC2=C[C@H](C)OC2=O)O1 [MOSIN C]	> 1 µg/mL	0.6 µg/mL (≈ 1.01 µM)	> 1 µg/mL	> 1 µg/mL	1.2 ×10⁻⁴ ug/ml	> 1 µg/mL							
CCCCCCCCCCCC[C@@H](O)[C@H]1CC[C@@H]([C@@H]2CC[C@@H](CCCCCCCCC[C@@H](O)CC3=C[C@H](C)OC3=O)O2)O1 [ROLLIDECIN D]	4 µg/mL (≈ 6.59 µM)	5.9 µg/mL (≈ 9.72 µM)	5.4 µg/mL (≈ 8.9 µM)	5 µg/mL (≈ 8.24 µM)		1.9 µg/mL (≈ 3.13 µM)				1 µg/mL (≈ 1.65 µM)			
CCCCCCCCCCCCCCCCC[C@@H](O)[C@H]1C[C@H](O)[C@H]([C@H]2CC[C@H]([C@H](O)CCCCCC3=C[C@H](C)OC3=O)O2)O1 [MUCOXIN]	0.84 µg/mL (≈ 1.35 µM)	0.036 µg/mL (≈ 0.0578 µM)	0.61 µg/mL (≈ 0.979 µM)	0.0037 µg/mL (≈ 0.00594 µM)		0.31 µg/mL (≈ 0.498 µM)				0.33 µg/mL (≈ 0.53 µM)			
CCCCCCCCCCCCCC/C=C\[C@@H](O)C[C@H](O)[C@@H]1CC[C@@H](CCCCC[C@@H](O)CC2=C[C@H](C)OC2=O)O1 [GONIOTRIONIN]	0.002 µg/mL (≈ 0.00345 µM)	0.0077 µg/mL (≈ 0.0133 µM)	0.34 µg/mL (≈ 0.587 µM)			0.36 µg/mL (≈ 0.622 µM)	5.3 ×10⁻⁶ ug/ml			0.0054 µg/mL (≈ 0.00933 µM)			
CCCCCCCCCC[C@@H](O)[C@H]1CC[C@@H]([C@H]2CC[C@H]([C@H](O)CCCC[C@H](O)CCCCC[C@@H](O)CC3=C[C@H](C)OC3=O)O2)O1	0.01 µg/mL (≈ 0.0157 µM)		0.14 µg/mL (≈ 0.219 µM)			0.38 µg/mL (≈ 0.595 µM)	1.9 ×10⁻⁸ ug/ml			0.2 µg/mL (≈ 0.313 µM)		1 ×10⁻⁸ ug/ml	

Reference: ChEMBL document CHEMBL1141818, “Annonaceous acetogenins: recent progress” (J Nat Prod, 1999)
